Data on three compounds can be found in patent US11059818B2, “Triazolopyridine inhibitors of myeloperoxidase” (BRISTOL-MYERS SQUIBB COMPANY, priority 2016, dated 2021).

Experiment [1] deals with T1, myeloperoxidase (Homo sapiens (Human), UniProt P05164). In words: MPO Peroxidation Assay (Amplex Red Assay). Particulars: potency range class. In kind it is biochemical. Here is the method:
MPO Peroxidation Assay (Amplex Red Assay)
MPO peroxidation activity was measured in 100 mM KPi (pH 7.4) by utilizing the non-fluorescent reagent Amplex Red (Invitrogen Cat. #A12222) which can be oxidized to the highly fluorescent resorufin. Amplex Red is oxidized by the peroxidase action of MPO to resorufin. Reactions were carried out in 50 μL total volume by adding a 25 μL mixture of 200 pM myeloperoxidase and 40 nM H2O2(Sigma #349887) to 100 nL inhibitor in 100% DMSO in a 384 well Perkin Elmer Optiplate. Enzyme and compound were preincubated for ten minutes at rt.
After the ten minute preincubation, 25 μL of an Amplex Red mixture containing 200 μM Amplex Red and 10 mM H2O2 was added to the plate. Kinetic determinations were carried out immediately on a Perkin Elmer Envision (15 minute kinetic read, Ex: 535 nm, Em: 590 nm).
IC50 values were calculated by determining the slope of the linear portion of the kinetic trace (180-540 secs), and using that calculated slope to determine % inhibition occurring at each concentration of inhibitor using the following equation:
(§1) [formula] where A=minimal Y value (activity level of inhibited sample), B=maximal Y value (activity level of uninhibited sample), C=Log IC50, D=Hill Slope, x=concentration of inhibitor. MPO Chlorination Assay (APF Assay)

The target in experiment [2] is T1, myeloperoxidase. As to the kind of experiment: MPO Chlorination Assay (APF Assay). The class given is biochemical. Conditions: potency range class. As for the experimental part:
as §1
MPO chlorination activity was measured in 100 mM KPi (pH 7.4) by utilizing the non-fluorescent reagent Aminophenyl fluorescein (APF, Invitrogen Cat. #A36003). APF is cleaved by (—OCl) to yield the fluorescent compound fluorescein. Reactions were carried out in 50 μL total volume by adding a 25 μL mixture of 200 pM myeloperoxidase and 120 mM NaCl to 100 nL inhibitor in 100% DMSO in a 384 well, non-binding surface clear bottom plate (Corning #3655). Enzyme, inhibitor, and chloride were preincubated for ten minutes at rt.
After the ten minute preincubation, 25 μL of an APF mixture containing […], 120 mM NaCl and 10 μM H2O2 was added to the plate using the internal dispensing system of a Hammatsu FDSS 6000. Kinetic determinations were carried out immediately on the FDSS 6000 (3 minute kinetic read, 1 read every second, ex: 485 nm, em: 535 nm). IC50 values for inhibitors were calculated by taking the slope of the linear portion of the kinetic measurement (20 seconds to ˜80-120 secs). […]
[formula] where A=minimal Y value (activity level of inhibited sample), B=maximal Y value (activity level of uninhibited sample), C=Log IC50, D=Hill Slope, x=concentration of inhibitor.

T1 sequence (P05164 49-745): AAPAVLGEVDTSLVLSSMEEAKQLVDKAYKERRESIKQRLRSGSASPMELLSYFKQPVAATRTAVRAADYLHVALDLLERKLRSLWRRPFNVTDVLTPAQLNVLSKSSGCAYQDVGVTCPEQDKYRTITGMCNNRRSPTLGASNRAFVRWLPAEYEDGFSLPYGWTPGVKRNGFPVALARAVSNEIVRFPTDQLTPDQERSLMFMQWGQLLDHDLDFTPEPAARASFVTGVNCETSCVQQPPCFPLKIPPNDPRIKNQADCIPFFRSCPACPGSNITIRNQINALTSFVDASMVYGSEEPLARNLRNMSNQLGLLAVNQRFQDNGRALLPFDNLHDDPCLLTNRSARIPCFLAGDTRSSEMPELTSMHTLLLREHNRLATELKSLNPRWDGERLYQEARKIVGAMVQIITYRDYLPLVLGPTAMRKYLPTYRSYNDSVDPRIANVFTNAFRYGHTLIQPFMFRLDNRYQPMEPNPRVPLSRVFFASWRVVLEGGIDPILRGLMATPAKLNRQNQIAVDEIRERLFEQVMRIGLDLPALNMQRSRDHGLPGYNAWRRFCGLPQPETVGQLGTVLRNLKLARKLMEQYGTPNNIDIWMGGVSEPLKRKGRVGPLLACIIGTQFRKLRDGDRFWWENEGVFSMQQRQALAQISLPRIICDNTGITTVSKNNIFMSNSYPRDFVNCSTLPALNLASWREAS

In the case of `Nc1cc(C(CCN[C@@H]2CC[C@@H](Cc3ccccc3)C2)c2cnn(CCc3cccc(O)c3)c2)c2nn[nH]c2n1` (stereo partly drawn) [Example 53], the IC50 is 1 to 10 µM against myeloperoxidase [1] and 0.101 to 0.999 µM against myeloperoxidase [2].
In the same order, the values of `Nc1cc(C(CCN[C@H]2C[C@H](Cc3ccccc3)[C@@H](O)C2)c2cnn(CCc3cccc(O)c3)c2)c2nn[nH]c2n1` (stereo partly drawn) [Example 54] are 1 to 10 µM and 0.101 to 0.999 µM.
In the same order, the values of `Nc1cc(C(CCO)c2cnn(Cc3cccc(OC4CCC(N)C4)c3)c2)c2nn[nH]c2n1` (stereo not drawn) [Example 55] are 0.101 to 0.999 µM and 0.101 to 0.999 µM.

A word on the IC50: it is the concentration needed to halve the response being measured.
